According to ChEMBL document CHEMBL1136837, “Unified QSAR approach to antimicrobials. 4. Multi-target QSAR modeling and comparative multi-distance study of the giant components of antiviral drug-drug complex networks” (Bioorg Med Chem, 2009):
pIC50: −log10 of the molar value.

Experiments:
Human alphaherpesvirus 1 = experiment: Antiviral activity against Herpes simplex virus 1; assay type: functional, organism-based; settings: Human alphaherpesvirus 1
Human alphaherpesvirus 2 = experiment: Antiviral activity against Herpes simplex virus 2; assay type: functional, organism-based; settings: Human alphaherpesvirus 2
Human betaherpesvirus 5 = experiment: Antiviral activity against Human cytomegalovirus; assay type: functional, organism-based
Vaccinia virus = experiment: Antiviral activity against Vaccinia virus; assay type: functional, organism-based, Orthopoxvirus vaccinia; settings: Orthopoxvirus vaccinia
Human alphaherpesvirus 3 = experiment: Antiviral activity against Varicella zoster virus; assay type: functional, organism-based
[1] = test system: unidentified influenza virus; experiment: Antiviral activity against influenza virus; assay type: functional, organism-based
Hepatitis B virus = experiment: Antiviral activity against Hepatitis B virus; assay type: functional, organism-based
[2] = test system: Human immunodeficiency virus 1; experiment: Antiviral activity against HIV1; assay type: functional, organism-based

Structure (SMILES): Cc1c(N)nc(N)nc1OCCOCP(=O)(O)O
- pIC50 (Human alphaherpesvirus 1): 8.92
- pIC50 (Human alphaherpesvirus 2): 8.92
- pIC50 (Human betaherpesvirus 5; Human betaherpesvirus 5): 9.14
- pIC50 (Vaccinia virus): 9.07
- pIC50 (Human alphaherpesvirus 3): 10.74

Structure (SMILES): Cc1cn(/C=C2/CC2(CO)CO)c(=O)[nH]c1=O
- pIC50 (Human alphaherpesvirus 1): 3.38
- pIC50 (Human alphaherpesvirus 2): 3.38
- pIC50 (Human betaherpesvirus 5; Human betaherpesvirus 5): 3.38
- pIC50 (Human alphaherpesvirus 3): 3.38

Structure (SMILES): O=C(O)/C(O)=C/C(=O)c1ccc(C2CCCCC2)cc1
- pIC50 [1]: 5.30

Structure (SMILES): O=c1c2nccnc2ncn1O
- pIC50 [1]: 3.30

Structure (SMILES): CC(=O)Nc1nc(C)c(S(=O)(=O)Nc2ccc(C(=O)Nc3ccc4c(c3)N(O)C(=O)/C4=C(\O)c3ccccc3)cc2)s1
- pIC50 [1]: 4.49

Structure (SMILES): O=C1Cc2ccccc2CN1O
- pIC50 [1]: 4.00

Structure (SMILES): CCc1ccc(Sc2nc(N)nc3c2ncn3CCOCP(=O)(OCC(F)(F)F)OCC(F)(F)F)cc1
- pIC50 (Hepatitis B virus): 6.40

Structure (SMILES): O=C(Nc1ccc2c(c1)N(O)C(=O)/C2=C(\O)c1ccccc1)c1ccc(NC(=O)c2cccs2)cc1
- pIC50 [1]: 4.70

Structure (SMILES): C[C@@H]1C(=O)N(C(=O)C2CC2)[C@H]2CCN(C(=O)[C@@H]3CCCN3C(=O)c3ccc(Cl)cc3)[C@H]12
- pIC50 (Human betaherpesvirus 5; Human betaherpesvirus 5): 5.85

Structure (SMILES): O=c1[nH]c(=O)n([C@H]2C[C@H](O)[C@]3(CO)C[C@H]23)cc1I
- pIC50 (Human alphaherpesvirus 1): 3.56
- pIC50 (Human alphaherpesvirus 2): 5.04

Structure (SMILES): Nc1ccn([C@@H]2CS[C@H](COP(=O)(O)OP(=O)(O)OP(=O)(O)O)O2)c(=O)n1 [LAMIVUDINE TRIPHOSPHATE]
- pIC50 (Hepatitis B virus): 8.12

Structure (SMILES): O=c1[nH]c(=O)n([C@H]2C[C@H](O)[C@@H](CO)O2)cc1/C=C/Br [BRIVUDINE]
- pIC50 (Human alphaherpesvirus 1): 4.32
- pIC50 (Human alphaherpesvirus 2): 7.12
- pIC50 (Human betaherpesvirus 5; Human betaherpesvirus 5): 3.82
- pIC50 (Vaccinia virus): 3.40
- pIC50 (Human alphaherpesvirus 3): 4.54

Structure (SMILES): O=C1CCc2ccccc2C(=O)N1O
- pIC50 [1]: 3.00

Structure (SMILES): COc1c(C#N)c2cc(Cl)c(Cl)cc2n1[C@H]1C[C@H](O)[C@@H](CO)O1
- pIC50 [2]: 4.05
- pIC50 (Human betaherpesvirus 5; Human betaherpesvirus 5): 4.17

Structure (SMILES): Nc1nc(Sc2ccc3ccccc3c2)c2ncn(CCOCP(=O)(OCC(F)(F)F)OCC(F)(F)F)c2n1
- pIC50 (Hepatitis B virus): 7.05

Structure (SMILES): NN1C(=O)Cc2ccccc2C1=O
- pIC50 [1]: 3.10

Structure (SMILES): Nc1nc(Sc2ccc([N+](=O)[O-])cc2)c2ncn(CCOCP(=O)(OCC(F)(F)F)OCC(F)(F)F)c2n1
- pIC50 (Hepatitis B virus): 6.28

Structure (SMILES): O=C(Nc1ccc2c(C(=O)c3ccccc3)c(O)n(O)c2c1)NC1CCCCC1
- pIC50 [1]: 4.30

Structure (SMILES): Nc1nc2c(ncn2COCCO)c(=O)[nH]1 [ACYCLOVIR]
- pIC50 (Vaccinia virus): 6.42

Structure (SMILES): Nc1nc(NC2CC2)cc(=O)n1CCOCP(=O)(O)O
- pIC50 (Human alphaherpesvirus 1): 10.28
- pIC50 (Human alphaherpesvirus 2): 10.28
- pIC50 [2]: 9.48
- pIC50 (Human alphaherpesvirus 3): 9.78

Structure (SMILES): O=C1Cc2ccccc2CC(=O)N1O
- pIC50 [1]: 3.00

Structure (SMILES): C[C@@H]1C(=O)N(C(=O)C2CC2)[C@H]2CCN(C(=O)[C@@H]3CCCN3S(=O)(=O)c3ccc(Cl)cc3)[C@H]12 (stereo in doubt; form 2)
- pIC50 (Human betaherpesvirus 5): 6.08

Structure (SMILES): CCCOc1ccc(NC(=O)N2CCC[C@H]2C(=O)N2CC[C@H]3[C@H]2[C@H](C)C(=O)N3C(=O)C2CC2)cc1
- pIC50 (Human betaherpesvirus 5; Human betaherpesvirus 5): 6.68

Structure (SMILES): Cc1cn([C@H]2C[C@H](O)[C@]3(CO)C[C@H]23)c(=O)[nH]c1=O [(NORTH)-METHANOCARBATHYMIDINE]
- pIC50 (Human alphaherpesvirus 1): 6.92

Structure (SMILES): CC(NP1(=O)CO[C@@H](Cn2ccc(N)nc2=O)CO1)C(=O)OCCc1ccccc1 (stereo partly specified)
- pIC50 (Vaccinia virus): 5.15

Structure (SMILES): CC(C)Oc1ccc(Sc2nc(N)nc3c2ncn3CCOCP(=O)(OCC(F)(F)F)OCC(F)(F)F)cc1
- pIC50 (Hepatitis B virus): 6.54

Structure (SMILES): O=C1Cc2ccccc2C(=O)N1O
- pIC50 [1]: 3.15

Structure (SMILES): CC(=O)OC[C@H]1S[C@@H](n2nc(C)c(=S)[nH]c2=O)C[C@@H]1OC(C)=O
- pIC50 (Human alphaherpesvirus 1): 5.10
- pIC50 (Human alphaherpesvirus 2): 5.10

Structure (SMILES): CCCCOc1ccc(Sc2nc(N)nc3c2ncn3CCOCP(=O)(OCC(F)(F)F)OCC(F)(F)F)cc1
- pIC50 (Hepatitis B virus): 6.00

Structure (SMILES): Nc1cc(OCCOCP(=O)(O)O)nc(N)n1
- pIC50 (Human alphaherpesvirus 1): 10.61
- pIC50 (Human alphaherpesvirus 2): 10.04

Structure (SMILES): CC(C)Oc1cccc(S(=O)(=O)N2CCC[C@H]2C(=O)N2CC[C@H]3[C@H]2[C@H](C)C(=O)N3C(=O)C2CC2)c1
- pIC50 (Human betaherpesvirus 5; Human betaherpesvirus 5): 4.19

Structure (SMILES): CC(C)COc1ccc(Sc2nc(N)nc3c2ncn3CCOCP(=O)(OCC(F)(F)F)OCC(F)(F)F)cc1
- pIC50 (Hepatitis B virus): 6.08

Structure (SMILES): CC(=O)c1c(O)n(O)c2cc(NC(=O)c3ccc4ccccc4c3)ccc12
- pIC50 [1]: 5.05

Structure (SMILES): Nc1nc(N)c(Cl)c(OCCOCP(=O)(O)O)n1
- pIC50 (Human alphaherpesvirus 2): 8.92
- pIC50 (Vaccinia virus): 8.92

Structure (SMILES): CCCc1nn([C@H]2C[C@H](O)[C@@H](CO)S2)c(=O)[nH]c1=O
- pIC50 (Human betaherpesvirus 5; Human betaherpesvirus 5): 4.40

Structure (SMILES): C[C@@H]1C(=O)N(C(=O)C2CC2)[C@H]2CCN(C(=O)[C@@H]3CCCN3S(=O)(=O)c3ccc4ccccc4c3)[C@H]12
- pIC50 (Human betaherpesvirus 5; Human betaherpesvirus 5): 6.72

Structure (SMILES): Cc1c(C(=O)N2CCC[C@H]2C(=O)N2CC[C@H]3[C@H]2[C@H](C)C(=O)N3C(=O)C2CC2)sc2ccc(Cl)cc12
- pIC50 (Human betaherpesvirus 5; Human betaherpesvirus 5): 6.72

Structure (SMILES): OC[C@H]1O[C@@H](n2c(Cl)nc3cc(Cl)c(Cl)cc32)[C@H](O)[C@@H]1O
- pIC50 (Human betaherpesvirus 5; Human betaherpesvirus 5): 5.49

Structure (SMILES): Cc1ccccc1Sc1nc(N)nc2c1ncn2CCOCP(=O)(OCC(F)(F)F)OCC(F)(F)F
- pIC50 (Hepatitis B virus): 7.10

Structure (SMILES): CC(C)c1ccc(Sc2nc(N)nc3c2ncn3CCOCP(=O)(OCC(F)(F)F)OCC(F)(F)F)cc1
- pIC50 (Hepatitis B virus): 6.01

Structure (SMILES): CC(C)/C=C1\N=C(CC(C)C)C(=O)N(O)C1=O
- pIC50 [1]: 5.26

Structure (SMILES): NC(=O)/C(O)=C/C(=O)C1CCCCC1
- pIC50 [1]: 3.30
